In ChEMBL document CHEMBL4257544, “Synthesis and biological evaluation of novel asymmetric naphthalene diimide derivatives as anticancer agents depending on ROS generation” (Medchemcomm, 2018):
Calls of active or inactive are those of the source. The calls are words filed in the database; no cut-off is given here.

How the values were obtained:
[1] = system: SMMC-7721; experiment: Antimigratory activity against human SMMC7721 cells at 1 to 3 uM after 24 hrs by crystal violet staining based transwell migration assay; assay type: functional, cell-based
[2] = system: MDA-MB-231; experiment: Cytotoxicity against human MDA-MB-231 cells after 48 hrs by MTT assay; assay type: functional, cell-based; conditions: MDA-MB-231, 48 h
[3] = system: SMMC-7721; experiment: Cytotoxicity against human SMMC7721 cells after 24 hrs by MTT assay; assay type: functional, cell-based; conditions: SMMC-7721, 24 h
[4] = system: HepG2; experiment: Induction of apoptosis in human HepG2 cells at 3 uM after 48 hrs by Annexin V/propidium iodide staining based flow cytometry relative to control; assay type: functional
[5] = system: HepG2; experiment: Induction of apoptosis in human HepG2 cells after 24 hrs by acridine orange/ethidium bromide and Hoechst 33342 staining based HCS analysis; assay type: functional, cell-based
[6] = system: HepG2; experiment: Induction of apoptosis in human HepG2 cells assessed as decrease in Bcl2 protein expression at 1 to 3 uM after 24 hrs by Western blot analysis; assay type: functional, cell-based
[7] = system: SMMC-7721; experiment: Induction of apoptosis in human SMMC7721 cells assessed as increase in cleaved PARP1 protein expression at 1 to 3 uM after 24 hrs by Western blot analysis; assay type: functional, cell-based
[8] = system: SMMC-7721; experiment: Induction of apoptosis in human SMMC7721 cells assessed as increase in caspase-8 activation at 1 to 3 uM after 24 hrs by Western blot analysis; assay type: functional, cell-based
[9] = system: SMMC-7721; experiment: Induction of autophagy in human SMMC7721 cells assessed as increase in BECN1 level at 1 to 3 uM by Western blot analysis; assay type: functional, cell-based
[10] = system: MCF7; experiment: Cytotoxicity against human MCF7 cells after 48 hrs by MTT assay; assay type: functional, cell-based; conditions: MCF7, 48 h
[11] = Cytotoxicity against human QSG7701 cells after 48 hrs by MTT assay; assay type: cell-based; conditions: QSG7701, 48 h
[12] = system: SMMC-7721; experiment: Induction of autophagy in human SMMC7721 cells assessed as vacuolization after 12 hrs; assay type: functional, cell-based
[13] = system: HepG2; experiment: Induction of apoptosis in human HepG2 cells assessed as increase in p53 protein expression treated at 1 hr post antioxidant alpha-tocopherol addition and measured after 24 hrs by Western blot analysis; assay type: functional, cell-based
[14] = system: HepG2; experiment: Downregulation of beta-catenin protein expression in human HepG2 cells treated at 1 hr post antioxidant alpha-tocopherol addition and measured after 24 hrs by Western blot analysis; assay type: functional, cell-based
[15] = system: SMMC-7721; experiment: Cytotoxicity against human SMMC7721 cells assessed as morphological changes treated at 1 hr post antioxidant alpha-tocopherol addition and measured after 24 hrs; assay type: functional, cell-based
[16] = system: SMMC-7721; experiment: Induction of autophagy in human SMMC7721 cells after 24 hrs by MDC staining based HCS analysis; assay type: functional, cell-based
[17] = system: HepG2; experiment: Induction of autophagy in human HepG2 cells assessed as decrease in p62 level at 1 to 3 uM by Western blot analysis; assay type: functional, cell-based
[18] = system: HepG2; experiment: Antimigratory activity against human HepG2 cells at 1 to 3 uM after 24 hrs by crystal violet staining based transwell migration assay; assay type: functional, cell-based
[19] = system: HCT-116; experiment: Cytotoxicity against human HCT116 cells after 48 hrs by MTT assay; assay type: functional, cell-based; conditions: HCT-116, 48 h
[20] = system: HepG2; experiment: Cytotoxicity against human HepG2 cells assessed as reduction in cell viability treated at 1 hr post antioxidant alpha-tocopherol addition by MTT assay; assay type: functional, cell-based
[21] = system: SMMC-7721; experiment: Downregulation of beta-catenin protein expression in human SMMC7721 cells at 1 to 3 uM after 24 hrs by Western blot analysis; assay type: functional, cell-based
[22] = system: HepG2; experiment: Induction of apoptosis in human HepG2 cells assessed as increase in cleaved PARP1 protein expression at 1 to 3 uM after 24 hrs by Western blot analysis; assay type: functional, cell-based
[23] = system: SMMC-7721; experiment: Induction of apoptosis in human SMMC7721 cells treated at 1 hr post antioxidant alpha-tocopherol addition and measured after 24 hrs by Annexin V/propidium iodide staining based flow cytometry; assay type: functional, cell-based
[24] = system: SMMC-7721; experiment: Cytotoxicity against human SMMC7721 cells after 48 hrs by MTT assay; assay type: functional, cell-based; conditions: SMMC-7721, 48 h
[25] = system: SMMC-7721; experiment: Induction of apoptosis in human SMMC7721 cells assessed as increase in cleaved PARP1 protein expression treated at 1 hr post antioxidant alpha-tocopherol addition and measured after 24 hrs by Western blot analysis; assay type: functional, cell-based
[26] = system: SMMC-7721; experiment: Downregulation of Akt phosphorylation at […] residue in human SMMC7721 cells at 1 to 3 uM after 24 hrs by Western blot analysis; assay type: functional, cell-based

With `CCCCN1C(=O)c2ccc3c4c(ccc(c24)C1=O)C(=O)N(CCCN(C)C)C3=O` the Activity [1] was “Active”, the IC50 [2] was 5.79 µM and the IC50 [3] was 5.38 µM. The Activity [4] was 67.8%, the Activity [5] was “Dose-dependent effect” and the Activity [6] was “Active”. The Activity [7] was “Active”, the Activity [8] was “Active” and the Activity [9] was “Active”. For the same compound, the IC50 [10] was 5.15 µM, the IC50 [11] was 7.11 µM and the Activity [12] was “Active”. For the same compound, the Activity [13] was “inactive”, the Activity [14] was “inactive” and the Activity [15] was “inactive”. For the same compound, the Activity [16] was “Dose-dependent effect”, the Activity [17] was “Active” and the Activity [18] was “Active”. The IC50 [19] was 14.7 µM, the Activity [20] was “inactive” and the Activity [21] was “Active”. The Activity [22] was “Active”, the Activity [23] was “inactive” and the IC50 [24] was 1.7 µM. The Activity [25] was “inactive” and the Activity [26] was “Active”.
